# “Also recorded” adds a separate entry of the source.
# Columns and labels:
# collagen type IV = test: Immunofluorescent staining of HSC cultures, collagen type IV; assay type: cell-based, human; conditions: 0.625 μM, 24-48 hours
# Method: (§1) Human Hepatic Stellate cells (LX-2 cell line) (HSCs) were obtained from the Key Lab of Regenerative Medicine, Jinan University, Guangzhou, China, which were maintained in Dulbecco's Modified Eagle Medium (DMEM)+10% fetal calf serum and penicillin-streptomycin (100 unit/ml and 0.1 mg/ml, respectively), in 5% CO2 at 37° C. inside a humidified cell incubator. The culture medium was changed every three days. To test the effects of small molecule Hesperadin on the mouse and human HSCs, the cultures were treated with 0.625 μM of Hesperadin for 48 hrs. The cultures were then fixed in ice cold 70% ethanol and incubated in phosphate buffered saline with RNase (0.25 mg/ml), Propidium iodide dye (40 μg/ml) and 0.1% Triton X for an hour at room temperature. For cell cycle analysis, the Propidium iodide stained cells were examined using a flow cytometer (“BD LSRFortessa Cell Analyzer”). The proliferation of HSCs was also evaluated by the MTT staining assay with 3-(4,5-Dimethylthiazol-2-yl)-2,5-diphenyltetrazolium bromide). […] The absorbance (at 570 nm) was measured using a BIORAD 3550 Microplate Reader. […] After washing, the sections were viewed and recorded using a FluoView FV1000 Confocal microscope and/or a Nikon i80 microscope respectively to identify the presence of HSC expressing collagens. The positive staining of Collagen types I, III and IV was analyzed with the Metamorph software.
# [1] = test system: human liver stellate cells; test: Cell death assay (MTT assay) SAR screening of Hesperadin related derivatives; assay type: cell-based; conditions: FIGS. 14A through 14T
# Method: Human Hepatic Stellate cells (LX-2 cell line) (HSCs) were obtained from the Key Lab of Regenerative Medicine, Jinan University, Guangzhou, China, which were maintained in Dulbecco's Modified Eagle Medium (DMEM)+10% fetal calf serum and penicillin-streptomycin (100 unit/ml and 0.1 mg/ml, respectively), in 5% CO2 at 37° C. inside a humidified cell incubator. The culture medium was changed every three days. To test the effects of small molecule Hesperadin on the mouse and human HSCs, the cultures were treated with 0.625 μM of Hesperadin for 48 hrs. The cultures were then fixed in ice cold 70% ethanol and incubated in phosphate buffered saline with RNase (0.25 mg/ml), Propidium iodide dye (40 μg/ml) and 0.1% Triton X for an hour at room temperature. For cell cycle analysis, the Propidium iodide stained cells were examined using a flow cytometer (“BD LSRFortessa Cell Analyzer”). The proliferation of HSCs was also evaluated by the MTT staining assay with 3-(4,5-Dimethylthiazol-2-yl)-2,5-diphenyltetrazolium bromide). HSCs were plated at 1×10^4 cells/ml and culture overnight. Hesperadin (in serial dilutions) was then added into the culture medium for 48 hours. This was followed by addition of MTT (250 μg/ml) for a further 4 hours. The medium was eluted and the formazan crystal was dissolved in 100 μL of DMSO. The absorbance (at 570 nm) was measured using a BIORAD 3550 Microplate Reader. […]
# MMP-9 gene expression = test: Real-time RT-PCR in HSC, MMP-9; assay type: cell-based, human; conditions: 0.625 μM, FIG. 10
# Method: Human Hepatic Stellate cells (LX-2 cell line) (HSCs) were obtained from the Key Lab of Regenerative Medicine, Jinan University, Guangzhou, China, which were maintained in Dulbecco's Modified Eagle Medium (DMEM)+10% fetal calf serum and penicillin-streptomycin (100 unit/ml and 0.1 mg/ml, respectively), in 5% CO2 at 37° C. inside a humidified cell incubator. The culture medium was changed every three days. To test the effects of small molecule Hesperadin on the mouse and human HSCs, the cultures were treated with 0.625 μM of Hesperadin for 48 hrs. […] The proliferation of HSCs was also evaluated by the MTT staining assay with 3-(4,5-Dimethylthiazol-2-yl)-2,5-diphenyltetrazolium bromide). […] The absorbance (at 570 nm) was measured using a BIORAD 3550 Microplate Reader. […]
# Collagen type-I, -III and -VI, MMP-2, MMP-9 and TIMP-1 gene expression was determined using quantitative real-time PCR. […] Quantitation of mRNA levels was performed using a SYBR® Premix Ex Taq™ Kit (Takara) in an Applied Biosystems 7900HT Fast Real-Time PCR System. To quantify the amount of specific mRNA in the samples, a standard curve was generated for each PCR run using four amounts of the cDNA synthesized from our HSC cultures and liver samples. […] Data was analyzed using a StatView software (Abacus Concepts Inc) with Student's t-test.
# [2] = test system: cultured bloodstream forms (BF); conditions: read-out: IC50, growth of cultured bloodstream forms (BF); cited from earlier work
# collagen type I = test: Immunofluorescent staining of HSC cultures, collagen type I; assay type: cell-based, human; conditions: 0.625 μM, 24-48 hours
# Method: as §1
smiles,measurement,setting,value
"CCS(=O)(=O)Nc1ccc2c(c1)/C(=C(/Nc1ccc(CN3CCCCC3)cc1)c1ccccc1)C(=O)N2 [Hesperadin, (Z)—N-(2-oxo-3-(Phenyl(4-(piperidin-1-ylmethyl)phenylamino)methylene)indolin-5-yl)ethanesulfonamide]",collagen type IV expression (immunofluorescence),collagen type IV,significantly inhibited; also recorded: inhibits the synthesis of collagen type IV
same,"percentage of inhibition, cell death assay (MTT), relative potency",[1],most potent derivative
same,MMP-9 mRNA expression,MMP-9 gene expression,inhibited
same,IC50,[2],50 nM
same,collagen type I expression (immunofluorescence),collagen type I,significantly inhibited; also recorded: inhibits the synthesis of collagen type I
